Source: US9622474B2, “N-(substituted)-5-fluoro-4-imino-3-methyl-2-oxo-3,4-dihydropyrimidine-1(2H)-carboxylate derivatives” (Adama Makhteshim Ltd., priority 2012, dated 2017)
Values belong to the compound of their own block, whether it stands above or below them.

Tests used:
[1] = system: Mycosphaerella graminicola; Anamorph: Septoria tritici; Bayer Code SEPTTR; assay: Fungicidal activity vs. leaf blotch of wheat (SEPTTR), one-day protectant (1DP); format: in vivo, Septoria tritici on wheat plants (variety Yuma); details: rating of % disease control vs untreated, inoculated plants
Protocol: (§1) Example A: Evaluation of Fungicidal Activity: Leaf Blotch of Wheat (Mycosphaerella graminicola; Anamorph: Septoria tritici; Bayer Code SEPTTR):
(§2) Wheat plants (variety Yuma) were grown from seed in a greenhouse in 50% mineral soil/50% soil-less Metro mix until the first leaf was fully emerged, with 7-10 seedlings per pot. These plants were inoculated with an aqueous spore suspension of Septoria tritici either prior to or after fungicide treatments. After inoculation the plants were kept in 100% relative humidity (one day in a dark dew chamber followed by two to three days in a lighted dew chamber) to permit spores to germinate and infect the leaf. The plants were then transferred to a greenhouse for disease to develop.
(§3) The following table presents the activity of typical compounds of the present disclosure when evaluated in these experiments. The effectiveness of the test compounds in controlling disease was determined by assessing the severity of disease on treated plants, then converting the severity to percent control based on the level of disease on untreated, inoculated plants.

[2] = system: Mycosphaerella graminicola; Anamorph: Septoria tritici; Bayer Code SEPTTR; assay: Fungicidal activity vs. leaf blotch of wheat (SEPTTR), three-day curative (3DC); format: in vivo, Septoria tritici on wheat plants (variety Yuma); details: rating of % disease control vs untreated, inoculated plants
Protocol: as §1, §2, §3

melting point: 135.6 to 137.1 °C
Structure (SMILES): COc1ccc(OC(=O)n2cc(F)c(=N)n(C)c2=O)cc1 [Compound 1, 4-methoxyphenyl 5-fluoro-4-imino-3-methyl-2-oxo-3,4-dihydropyrimidine-1(2H)-carboxylate]
SEPTTR 100 PPM 1DP [1]: A (76-100)
SEPTTR 100 PPM 3DC [2]: A (76-100)

Structure (SMILES): COc1ccc(OC(=O)/N=c2/c(F)cn(C(=O)Oc3ccc(OC)cc3)c(=O)n2C)cc1 [Compound 2]
SEPTTR 100 PPM 1DP [1]: A (76-100)
SEPTTR 100 PPM 3DC [2]: A (76-100)
melting point: 161.8 to 165.6 °C

Structure (SMILES): Cc1ccc(OC(=O)n2cc(F)c(=N)n(C)c2=O)cc1 [Compound 3]
SEPTTR 100 PPM 1DP [1]: A (76-100)
SEPTTR 100 PPM 3DC [2]: A (76-100)
melting point: 109 to 110.2 °C

Structure (SMILES): Cn1c(=N)c(F)cn(C(=O)Oc2ccccc2)c1=O [Compound 4]
SEPTTR 100 PPM 1DP [1]: A (76-100)
SEPTTR 100 PPM 3DC [2]: A (76-100)
melting point: 86.4 to 87.6 °C
